In patent US8012481B2, “Composition and method for inducing or restoring locomotor functions in an animal” (Universite Laval, priority 2004, dated 2011):

Assays:
Format in all cases: in vivo, mouse
[1] = test system: paraplegic mice (lumbar spinal cord circuitry for hindlimb locomotion); test: Hindlimb movement generation (LM/NLM) on a motor-driven treadmill in complete spinal cord transected mice; conditions: for induction of LM: some NLM were found; for mice in which a mixture of LM and NLM was induced: 7 animals/group
paraplegic mice [2] = test: Hindlimb movement generation in paraplegic mice, air-stepping and/or treadmill not separated; BBB and AOB scales; conditions: for effect of 5-HT1A antagonist pretreatment on 8-OH-DPAT-induced LM: antagonist 2 mg/kg; for induction of LM / induction of NLM: increasing doses, air-stepping and treadmill conditions, FIG. 13
Experimental: Animals and Treatment. We tested one hundred and ninety five (n=195) male and female adult CD1 and C57BL/6 mice weighing 30-40 grams prior to the study (Charles River Laboratory, St-Constant, Canada). […] Animals were spinalized 7 days prior to testing (exceptionally tested sometimes at 15 days post-spinalization, e.g., FIG. 17). A complete transection of the spinal cord was performed intervertebrally between the 9th and 10th vertebrae in isoflurane (2.5%) anesthetized animals. Complete spinalization was confirmed by 1) full paralysis of the hindlimbs, 2) post-mortem examination of the spinal cord microscopically and, in some cases, 3) staining transverse or sagittal spinal cord sections with luxol fast blue/cresyl violet for myelinated axons and nissl substance respectively. All mice received pre-operative care and post-operative care including lactate-Ringer's solution (2 ml/day, s.c.), analgesic (buprenorphine 0.2 mg/kg/day, s.c.) and antibiotic (baytril 5 mg/kg/day, s.c.). Bladders were emptied manually and animals were left in their cage without other interventions with food and water ad libitum until testing. Mice received a single injection (i.p.) of either 8-OHDPAT (5-HT1A/7); 5-CT (5-HT1A/7 agonist); buspirone (5-HT1A agonist); TFMPP (5-HT1B/2C agonist); quipazine (5-HT2B/2C); m-CPP (5-HT2B/2C agonist); SR-57227A (5-HT3) one week post-spinalization. […] The contribution of spinal 5-HT4/5/6 receptor activation to hindlimb movement generation in spinalized animals were not tested either because selective ligands are not available or because no significant expression levels have been found for these receptor subtypes in the mammalian spinal cord (see Schmidt and Jordan, Brain Res Bull 2000).
Hindlimb movement recording. Hindlimb movements were filmed (digital video camera 3 Com Home-connect, 30 frames/sec) immediately prior to injection and at fixed delays after injection in animals either suspended (air-stepping condition) or placed on a treadmill running at a speed of 8-10 cm/sec (treadmill condition). A harness was put around the torso and the waist either to completely suspend animals (air-stepping) or to maintain them in front of the camera on the treadmill (not weight support was provided). Animals were not stimulated otherwise. Locomotor-like movements were defined as rhythmic flexions and extensions occurring in both hindlimbs alternatively. Body weight support and plantar foot placement were facultative and therefore not required to be counted as locomotor-like (LM). In turn, non-locomotor movements (NLM) were defined as non-bilaterally alternating hindlimb movements most often including spasms, kicks, uncoordinated or unilateral movements, etc. In some cases, qualitative assessment methods were used to evaluate the level of induced hindlimb movements. The BBB locomotor scale (Basso, Bresnahan and Beattie, Exp Neurol 1996) and the AOB motor scale (Antri, Orsal and Barthe, Eur J Neurosci 2002) were also occasionally used.

[3] = test system: paraplegic mice (lumbar spinal cord circuitry for hindlimb locomotion); test: Hindlimb movement generation (LM/NLM) on a motor-driven treadmill in complete spinal cord transected mice
Experimental: (§1) Animals and Treatment Thirty-two (n=32) male or female adult CD1 mice weighing 30-40 grams were tested prior to the study (Charles River Laboratory, St-Constant, Canada). The experiment was conducted in a Canadian Council on Animal Care approved facility in accordance with the CCAC Guide for Care and Use of Experimental Animals. Animals were spinalized 7-9 days prior to testing. A complete transection of the spinal cord was performed intervertebrally between the 9th and 10th vertebrae in isoflurane (2.5%) anesthetized animals. Complete spinalization was confirmed by 1) full paralysis of the hindlimbs, 2) post-mortem examination of the spinal cord microscopically and, in some cases, 3) staining transverse or sagittal spinal cord sections with luxol fast blue/cresyl violet for myelinated axons and nissl substance respectively. All mice received pre-operative care and post-operative care including lactate-Ringer's solution (2 ml/day, s.c.), analgesic (buprenorphine 0.2 mg/kg/day, s.c.) and antibiotic (baytril 5 mg/kg/day, s.c.). Bladders were emptied manually and animals were left in their cage without other interventions with food and water ad libitum until testing.
Hindlimb movement recording. Hindlimb movements were filmed (digital video camera 3 Com Home-connect, 30 frames/sec), 1) immediately prior to injection and, 2) at fixed delays after injection in animals placed on a treadmill running at a speed of 8-10 cm/sec (treadmill condition). A harness was put around the torso and the waist to maintain them in front of the camera on the treadmill (not weight support was provided). Animals were not stimulated otherwise. Hindlimb movements were assessed either as locomotor-like movements (LM) or non-locomotor movements (NLM) Locomotor-like movements were defined as rhythmic flexions and extensions occurring in both hindlimbs alternatively. Body weight support and plantar foot placement were facultative and therefore not required to be counted as locomotor-like (LM). In turn, non-locomotor movements (NLM) were defined as non-bilaterally alternating hindlimb movements most often including spasms, kicks, uncoordinated or unilateral movements, etc. Levels of weight supported movements and of plantar foot placements were assessed as either none, occasional, or frequent.
as §1, with “and Treatment. Twenty-nine (n=29)” for “and Treatment Thirty-two (n=32)”, “male and” for “male or”, “grams” for “grams were tested”, “spinalized 7” for “spinalized 7-9”, “(baytril” for “(baytril 5”
Hindlimb movement recording, Hindlimb movements were filmed (digital video camera 3 Com Home-connect, 30 frames/sec) immediately prior to injection and at fixed delays after injection in animals suspended (air-stepping condition) or placed on a treadmill running at a speed of 8-10 cm/sec (treadmill condition). A harness was put around the torso and the waist either to completely suspend animals (air-stepping) or to maintain them in front of the camera on the treadmill (not weight support was provided).

paraplegic mice [4] = test: Hindlimb movement generation in the air-stepping condition (suspended) in spinal cord transected mice
From the text: Animals and Treatment. Twenty-nine (n=29) male and female adult CD1 mice weighing 30-40 grams prior to the study (Charles River Laboratory, St-Constant, Canada). […] Animals were spinalized 7 days prior to testing. […] Bladders were emptied manually and animals were left in their cage without other interventions with food and water ad libitum until testing. […] A harness was put around the torso and the waist either to completely suspend animals (air-stepping) or to maintain them in front of the camera on the treadmill (not weight support was provided). Animals were not stimulated otherwise. Animals and Treatment. […] Bladders were emptied manually and animals were left in their cage without other interventions with food and water ad libitum until testing. Mice received a single injection (i.p.) of either 8-OHDPAT (5-HT1A/7); 5-CT (5-HT1A/7 agonist); buspirone (5-HT1A agonist); TFMPP (5-HT1B/2C agonist); quipazine (5-HT2B/2C); m-CPP (5-HT2B/2C agonist); SR-57227A (5-HT3) one week post-spinalization. […] Hindlimb movement recording. […] A harness was put around the torso and the waist either to completely suspend animals (air-stepping) or to maintain them in front of the camera on the treadmill (not weight support was provided). Animals were not stimulated otherwise. Locomotor-like movements were defined as rhythmic flexions and extensions occurring in both hindlimbs alternatively. Body weight support and plantar foot placement were facultative and therefore not required to be counted as locomotor-like (LM). In turn, non-locomotor movements (NLM) were defined as non-bilaterally alternating hindlimb movements most often including spasms, kicks, uncoordinated or unilateral movements, etc. In some cases, qualitative assessment methods were used to evaluate the level of induced hindlimb movements. The BBB locomotor scale (Basso, Bresnahan and Beattie, Exp Neurol 1996) and the AOB motor […], Orsal and Barthe, Eur J Neurosci 2002) were also occasionally used.

[5] = single injection 0.5-2.5 mg/kg, i.p., CD1 mice 6-7 days post-spinalization, treadmill
[6] = i.p. prior to 8-OH-DPAT, both strains
[7] = L-DOPA 40-100 mg/kg, treadmill, n=29

Cc1cccc(C(=O)NCN2CCN(c3ccccc3C#N)CC2)c1 [PD168077]
induction of LM [1, 5]: did not induce LM

CC1CCN(CC[C@H]2CCCN2S(=O)(=O)c2cccc(O)c2)CC1 [SB269970]
effect of 5-HT7 antagonist pretreatment on 8-OH-DPAT-induced movement frequencies, amplitudes and angular excursions (paraplegic mice [2]; SB269970 2-15 mg/kg, i.p. prior to 8-OH-DPAT, both strains): importantly reduced

COc1ccccc1N1CCN(CC(C(=O)NC(C)(C)C)c2ccccc2)CC1 (stereo not drawn) [WAY100,135]
effect of 5-HT1A antagonist pretreatment on 8-OH-DPAT-induced LM (paraplegic mice [2]; [6]): significantly reduced

CCCN(CCC)C1CCc2cccc(O)c2C1 (stereo not drawn) [8-OH-DPAT, 8-hydroxy-2-(di-n-propylamino)tetralin]
doses at which all-or-none-like effects (LM and NLM) start ([1]; 8-OH-DPAT i.p., spinal mice on a treadmill (FIG. 18), n=28): ≥ 1 mg/kg | induction of hindlimb movements (paraplegic mice [2]; 8-OH-DPAT 1 mg/kg, i.p., CD1 and C57BI/6 mice seven days after transection): induced hindlimb alternated movements in most mice | weight supported steps or plantar foot placements (paraplegic mice [2]; 8-OH-DPAT 1 mg/kg, i.p., seven days after transection): not found

Cl.NC1CCN(c2cccc(Cl)n2)CC1 [SR-57227A]
type of hindlimb movements induced (paraplegic mice [2]; SR-57227A i.p., air-stepping, open-field or treadmill): can induce only NLM | scores with the BBB and Antri motor scales (paraplegic mice [2]; SR-57227A, FIG. 16): very low scores | score on Basso, Beattie and Bresnahan (1996) locomotor scale (paraplegic mice [2]; SR-57227A, FIG. 16A): Non-significant scores | locomotor-like movements per min on a treadmill ([3]; SR-57227A, treadmill, in some animals): approx. 2.5 per min

CCCN(CCC)C1CCc2ccc(O)cc2C1 (stereo not drawn) [7-OH-DPAT]
induction of LM [1, 5]: did not induce LM

Clc1cccc(N2CCNCC2)c1 [m-CPP]
induction of LM (paraplegic mice [2]; i.p.): not to induce LM | induction of NLM (paraplegic mice [2]; i.p.): dose-dependent non-locomotor movements were found

N[C@@H](Cc1ccc(O)c(O)c1)C(=O)O [L-DOPA, L-(−)-2-amino-3-(3,4-dihydroxyphenyl)propionic acid]
hindlimb movement generation in air-stepping (paraplegic mice [4]; 40 mg/kg L-DOPA, 1-week paraplegic mouse, 20 min post-injection (no effect either 30 or 45 min later)): No hindlimb movements | hindlimb movement generation in air-stepping (paraplegic mice [4]; 80 mg/kg L-DOPA, 28 min after injection): No movements | hindlimb movement generation in air-stepping (paraplegic mice [4]; 30-100 mg/kg L-DOPA i.p. with benserazide (1:4), CD1 mice 7 days post-spinalization): did not induce hindlimb movements | weight bearing locomotor capabilities ([3]; L-DOPA 40-100 mg/kg, treadmill, all cases): no weight bearing locomotor capabilities | LM per min (average) [3, 7]: 6.1±1.3 per min | NLM per min (average) [3, 7]: 11.2±1.8 per min | uneffective doses on treadmill ([3]; L-DOPA i.p. with benserazide (1:4), CD1 mice 7 days post-spinalization, treadmill 8-10 cm/sec): < 40 mg/kg | time following injection at which hindlimb movements began ([3]; one mouse (FIG. 6): 40 mg/kg L-DOPA, treadmill): 20 min

Oc1cc2c(c(Cl)c1O)CCNCC2c1ccccc1 (stereo not drawn) [SKF-81297]
ACOS (averaged combined score = NLM+[LM×2]) [1, 5]: > 8 | mice in which a mixture of LM and NLM was induced [1, 5]: 71%

c1ccc2nc(N3CCNCC3)ccc2c1 [quipazine]
times less LM than 8-OH-DPAT tested in similar conditions (paraplegic mice [2]; quipazine, FIG. 9 vs. FIG. 15): 2-3 times | weight-supported stepping and plantar foot placement (paraplegic mice [2]; quipazine, air-stepping or treadmill 8-10 cm/sec): No weight-supported stepping and plantar foot placement were found | number of movements of each type (LM, NLM) (paraplegic mice [2]; quipazine, treadmill as well as air-stepping, FIG. 15): 8-15 | doses inducing some rhythmic LM in air-stepping (paraplegic mice [4]; quipazine i.p., air-stepping condition, FIG. 14): above 0.8 mg/kg | ineffective doses (paraplegic mice [4]; quipazine i.p., air-stepping, FIG. 14H): below 0.8 mg/kg

NC[C@@H]1O[C@H](c2ccccc2)Cc2c1ccc(O)c2O [A-68930]
mice in which a mixture of LM and NLM was induced [1, 5]: 28%

CN1CCc2cccc3c2[C@H]1Cc1ccc(O)c(O)c1-3 [apomorphine, (R)-5,6,6a,7-tetrahydro-6-methyl-4H-dibenzo-[de,g]quinoline-10,11-diol]
mice in which a mixture of LM and NLM was induced [1, 5]: 11%

COc1ccccc1N1CCN(CCN(C(=O)C2CCCCC2)c2ccccn2)CC1 [WAY100,635]
effect of 5-HT1A antagonist pretreatment on 8-OH-DPAT-induced LM (paraplegic mice [2]; [6]): significantly reduced

FC(F)(F)c1cccc(N2CCNCC2)c1 [TFMPP]
induction of LM (paraplegic mice [2]; i.p.): not to induce LM | induction of NLM (paraplegic mice [2]; i.p.): induced only NLM
